# Where two headings read alike, the source gives them in different places.
# How the values were obtained:
# [1] = system: human breast cancer cell strain MAD-MB-231; assay: MTT growth inhibition on MAD-MB-231; assay type: cell-based; settings: MDA-MB-231, after 48 h of action
# Procedure: (§1) By using an MTT method, a sample solution to be tested was added to a 96-well plate in which cancer cells were adherently grown. Culturing was performed for a certain period, and the growth inhibition effect of a compound on a human cancer cell strain for primary screening was measured to determine the anti-cancer activity of the compound.
# (§2) Cell culture: A cell incubator was set to conditions of 37° C., 5% CO2, and a saturated humidity, cells were cultured under these conditions, and the cell medium was a DMEM complete medium, wherein 10% fetal bovine serum, 100 IU/mL penicillin, and 100 μg/mL streptomycin were comprised.
# (§3) The single cell suspension was diluted to 5×10^3/100 μL after counting, inoculated on a 96-well cell culture plate (triplicate), and adherently cultured overnight; […]
# (§4) The culture liquid was discarded, 100 μL of DMSO was added, low-speed oscillation was performed for 10 min by placing on a shaker, and the spectrophotometric value of each well was measured at a wavelength of 490 nm by using a microplate reader. Statistical analysis was performed and tumor cell growth inhibition rate was calculated according to the equation: Growth inhibition rate=(OD value of control group−OD value of experimental group)/OD value of control group.
# [2] = system: human liver cancer cell strain SMMC-7721; assay: MTT growth inhibition on SMMC-7721; assay type: cell-based; settings: concentration range of 10-40 μg/mL, one of 6 types of tumor cells
# Procedure: as §1, §2, §3, §4
# liver cancer cells = assay: MTT growth inhibition on liver cancer cells; assay type: cell-based; settings: Homo sapiens
# Procedure: as §1, §2, §3, §4
# HepG2 cells [3] = assay: Apoptosis induction, Annexin V and PI double-staining, flow cytometry; assay type: cell-based, human; settings: HepG2, 24 h; sorafenib 4 μg/mL; combination 4 μg/mL sorafenib+5 μg/mL FICD
# Procedure: Different concentrations of FICD were added on the second day, culture was continued for 24 h, cells were collected and washed 3 times with precooled PBS, and adherent cells were digested with trypsin free of EDTA. The solutions were combined, centrifuged, and washed 3 times again with precooled PBS. 400 μL of solution containing 5 μL of V-FITC and 10 μL of PI was added, incubation was performed at room temperature under protection from light, and detection was performed by flowcytometry after 30 min.
# HepG2 cells [4] = assay: Cell cycle distribution by flow cytometry; assay type: cell-based, human; settings: sorafenib 5 μg/mL, FICD 10 μg/mL, combination 5 μg/mL FICD+10 μg/mL sorafenib
# Procedure: 1 mL of 70% precooled (−20° C.) ethanol was added to the cell precipitate, homogenized by pipetting, and fixed at 4° C. overnight. On the second day, HepG2 cells was collected by centrifugation, 2 mL of precooled PBS was added for washing 3 times, 500 μL of PBS containing 50 μg/mL […] (PI) and 100 μg/mL RNaseA was added, and incubation was performed at 4° C. under protection from light for 30 min. Detection was performed on a flow cytometer, and results can be seen in FIG. 9 and FIG. 10.
# HepG2 cells [5] = assay: Apoptosis induction by laser confocal scanning microscope; assay type: cell-based, human; settings: HepG2, 48 h
# Procedure: Two solutions (a former one and a later one) were mixed, centrifugation was performed at 1000 r/min for 5 min, the supernatant was discarded, and washing was performed for 3 times with PBS. The cell precipitate was resuspended in Binding Buffer, 10 μL of a FITC-Annen V staining liquid was added, homogenized by pipetting slightly, and reaction was performed under protection from light. PI was added for staining for 15 min, centrifugation was performed, the supernatant was discarded, and washing was performed for 3 times again with PBS. A glass slide was loaded by applying the cell precipitate thereto and mounted with non-fluorescent buffering glycerol, a laser confocal scanning microscope was immediately used for observation and taking photographs at wavelengths of 488 nm and 560 nm. Meanwhile, cells without AnneixnV-FITC and PI added were used as a negative control.
# [6] = system: ascites hepatoma H22 induced solid tumor; assay: In vivo tumor growth inhibition in mice bearing H22; parameters: species or system white Kunming mice; settings: for Tumor inhibition rate (%): Table 5
# [7] = system: human cervical cancer Hela cell strains; assay: MTT growth inhibition on Hela; settings: Homo sapiens, HeLa;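 also: compound exposure of 24, 48 or 72 h in DMEM with 10% fetal bovine serum, MTT absorbance read at 490 nm, inhibition calculated relative to control group OD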
# Procedure: as §1, §2
# The single cell suspension was diluted to 5×10^3/100 μL after counting, inoculated on a 96-well cell culture plate (triplicate), and adherently cultured overnight;
# After 24 h of adhesion, the complete medium was discarded, 100 μL-sample-solutions to be tested having different concentrations were sequentially added to the 96-well plate according to a concentration gradient, and incubations were continued for 24 h, 48 h, and 72 h;
# The culture liquid was discarded, a 0.5 mg/mL MTT diluted working liquid was added, and incubation was performed for 4 h by placing in an incubator;
# as §4
# Culturing was performed for a certain period, the growth inhibition effect of a compound on 3 human cancer cell strains for primary screening was measured to determine the anti-cancer activity of the compound, and a growth inhibition curve was plotted.
smiles,measurement,setting,value
COc1cc(NC(=O)Nc2ccc(Cl)c(C(F)(F)F)c2)c2c(c1O)-c1c(OC)c(OC)cc3c1C(C2)N(C)CC3 (stereo not shown) [Compound 1],IC50,[1],14.2 ± 0.66 µg/mL
same,growth inhibition activity,[2],certain growth inhibition activities
same,IC50,liver cancer cells,10 to 20 µg/mL
same,apoptosis rate,HepG2 cells [3],11.93%
same,cell cycle distribution compared to the blank control group,HepG2 cells [4],cells significantly increased in the G2/M phase and decreased in the G0/G1 phase
same,"apoptosis and cell morphology, Anneixn V-FITC and PI double-staining",HepG2 cells [5],apoptoses occurred during various phases
same,tumor inhibition rates for three administration dosages,"[6]; Example 25, 150, 100 and 50 mg/Kg, intragastric or intraperitoneal injection",≥ 40%
same,Tumor inhibition rate (%),"[6]; intragastric administration, high dosage 150 mg/Kg",53.4%
same,Tumor inhibition rate (%),"[6]; intragastric administration, low dosage 50 mg/Kg",40.1%
same,Tumor inhibition rate (%),"[6]; intragastric administration, middle dosage 100 mg/Kg",48.2%
same,Tumor inhibition rate (%),"[6]; intraperitoneal injection, high dosage 150 mg/Kg",53.0%
same,Tumor inhibition rate (%),"[6]; intraperitoneal injection, low dosage 50 mg/Kg",40.3%
same,Tumor inhibition rate (%),"[6]; intraperitoneal injection, middle dosage 100 mg/Kg",46.3%
same,IC50,"[7]; 48 h, read-out: IC50 Hela, after 48 h of action",18.6 ± 0.29 µg/mL
same,IC50,"[7]; read-out: IC50 HeLa, Table 1, MTT",26.5 µM
same,IC50,"[7]; read-out: IC50 Hela, Table 2, MTT",26.5 µM

# Reference: patent US10519132B2, “Isocorydine derivatives, preparation method and use thereof” (Lanzhou Institute of Chemical Physics, Chinese Academy of …, priority 2017, dated 2019)
